Experimental data reported in US8247211B2, “Glycopeptide antibiotics” (American Cyanamid Company, priority 2001, dated 2012).
Converted amounts (≈) assume the structure as drawn.

Columns and labels:
Assay in all cases: In vitro antibacterial evaluation: minimum inhibitory concentration (MIC), broth dilution method
Assay type in all cases: cell-based
Staphylococcus sp. = conditions: broth dilution, 18 hours at 35° C.
Outline: (§1)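 Inoculum: 5×10^5 CFU/mL. Range: 64-0.06 μg/mL. Medium: Muller-Hinton II […]; NCCLS M7-A2 broth dilution. Endpoint: lowest concentration inhibiting growth. Strains include methicillin-, penicillin- and/or vancomycin-resistant clinical isolates.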

Streptococcus sp. = tested on: Streptococcus sp.
Outline: as §1

Escherichia coli = conditions: for MIC Escherichia coli (ATCC 25922): strain ATCC 25922; for MIC Escherichia coli (GC 4559): strain GC 4559; for MIC Escherichi coli (GC 4560): strain GC 4560
Outline: as §1

Enterococcus sp. = tested on: Enterococcus sp.
Outline: as §1

[1] = broth dilution, inoculum 5×10^5 CFU/mL, 18 hours at 35° C.

## CSc1ccc(C2OCC3OC(OC4C(CO)OC(Oc5ccc(CC6NC(=O)C(C(C)c7ccccc7)NC(=O)CNC(=O)C(CO)NC(=O)C(C(O)C7CNC(=N)N7C7OC(CO)C(O)C(O)C7O)NC(=O)C(C(O)C7CNC(=N)N7)NC6=O)cc5)C(O)C4O)C(O)C(O)C3O2)cc1[N+](=O)[O-] (stereo not drawn) [Example 168, Cyclo[glycyl-β-methylphenylalanyl-O-[4-O-[4,6-O-[4-(methylthio)-3-nitrobenzylidene]hexopyranosyl]hexopyranosyl]tyrosyl-3-(2-iminoimidazolidin-4-yl)seryl-3-(3-hexopyranosyl-2-iminoimidazolidin-4-yl)serylseryl]]
Staphylococcus sp.; 5×10^5 CFU/mL
  MIC Coagulase Negative Staphylococcus (GC 4547): 2 µg/mL (≈ 1.36 µM)
  MIC Coagulase Negative Staphylococcus (GC 4548): 0.5 µg/mL (≈ 0.339 µM)
  MIC Coagulase Negative Staphylococcus (GC 4549): 0.5 µg/mL (≈ 0.339 µM)
  MIC Coagulase Negative Staphylococcus (GC 4551): 1 µg/mL (≈ 0.678 µM)
  MIC Staphylococcus aureus (ATCC 29213): 1 µg/mL (≈ 0.678 µM)
  MIC Staphylococcus aureus (GC 1131): 1 µg/mL (≈ 0.678 µM)
  MIC Staphylococcus aureus (GC 3051): 1 µg/mL (≈ 0.678 µM)
  MIC Staphylococcus aureus (GC 3053): 1 µg/mL (≈ 0.678 µM)
  MIC Staphylococcus aureus (GC 4541): 1 µg/mL (≈ 0.678 µM)
  MIC Staphylococcus aureus (GC 4542): 1 µg/mL (≈ 0.678 µM)
  MIC Staphylococcus aureus (GC 4544): 2 µg/mL (≈ 1.36 µM)
  MIC Staphylococcus aureus (GC 4545): 1 µg/mL (≈ 0.678 µM)
  MIC Staphylococcus aureus-SMITH (GC 4543): 1 µg/mL (≈ 0.678 µM)
  MIC Staphylococcus haemolyticus (GC 4546): 0.5 µg/mL (≈ 0.339 µM)
Staphylococcus sp.; strain ATCC 29213
  MIC Staphylococcus aureus (ATCC 29213): 1 µg/mL (≈ 0.678 µM)
Staphylococcus sp.; strain GC 1131
  MIC Staphylococcus aureus (GC 1131): 1 µg/mL (≈ 0.678 µM)
Staphylococcus sp.; strain GC 3051
  MIC Staphylococcus aureus (GC 3051): 1 µg/mL (≈ 0.678 µM)
Staphylococcus sp.; strain GC 3053
  MIC Staphylococcus aureus (GC 3053): 1 µg/mL (≈ 0.678 µM)
Staphylococcus sp.; strain GC 4541
  MIC Staphylococcus aureus (GC 4541): 1 µg/mL (≈ 0.678 µM)
Staphylococcus sp.; strain GC 4542
  MIC Staphylococcus aureus (GC 4542): 1 µg/mL (≈ 0.678 µM)
Staphylococcus sp.; strain GC 4544
  MIC Staphylococcus aureus (GC 4544): 2 µg/mL (≈ 1.36 µM)
Staphylococcus sp.; strain GC 4545
  MIC Staphylococcus aureus (GC 4545): 1 µg/mL (≈ 0.678 µM)
Streptococcus sp.; [1]
  MIC Streptococcus agalactiae (GC 4564): <0.12 µg/mL
  MIC Streptococcus pneumoniae (ATCC 6301): <0.12 µg/mL
  MIC Streptococcus pneumoniae (GC 1894): <0.12 µg/mL
  MIC Streptococcus pneumoniae (GC 4565): <0.12 µg/mL
  MIC Streptococcus pyogenes (GC 4563): 0.5 µg/mL (≈ 0.339 µM)
Streptococcus sp.; strain ATCC 6301
  MIC Streptococcus pneumoniae (ATCC 6301): <0.12 µg/mL
Streptococcus sp.; strain GC 1894
  MIC Streptococcus pneumoniae (GC 1894): <0.12 µg/mL
Streptococcus sp.; strain GC 4563
  MIC Streptococcus pyogenes (GC 4563): 0.5 µg/mL (≈ 0.339 µM)
Streptococcus sp.; strain GC 4564
  MIC Streptococcus agalactiae (GC 4564): <0.12 µg/mL
Streptococcus sp.; strain GC 4565
  MIC Streptococcus pneumoniae (GC 4565): <0.12 µg/mL
Escherichia coli
  MIC Escherichia coli (ATCC 25922): 64 µg/mL (≈ 43.4 µM)
  MIC Escherichia coli (GC 4559): 16 µg/mL (≈ 10.9 µM)
  MIC Escherichi coli (GC 4560): 0.5 µg/mL (≈ 0.339 µM)
Enterococcus sp.; [1]
  MIC Enterococcus avium (GC 4558): 2 µg/mL (≈ 1.36 µM)
  MIC Enterococcus faecalis (ATCC 29212): 2 µg/mL (≈ 1.36 µM)
  MIC Enterococcus faecalis (GC 2242): 2 µg/mL (≈ 1.36 µM)
  MIC Enterococcus faecalis (GC 2691): 2 µg/mL (≈ 1.36 µM)
  MIC Enterococcus faecalis (GC 3059): 2 µg/mL (≈ 1.36 µM)
  MIC Enterococcus faecalis (GC 4552): 2 µg/mL (≈ 1.36 µM)
  MIC Enterococcus faecalis (GC 4553): 2 µg/mL (≈ 1.36 µM)
  MIC Enterococcus faecalis (GC 4554): 2 µg/mL (≈ 1.36 µM)
  MIC Enterococcus faecalis (GC 6189): 2 µg/mL (≈ 1.36 µM)
  MIC Enterococcus faecium (GC 2243): 2 µg/mL (≈ 1.36 µM)
  MIC Enterococcus faecium (GC 4556): 2 µg/mL (≈ 1.36 µM)
  MIC Enterococcus faecium (GC 4557): 1 µg/mL (≈ 0.678 µM)
Enterococcus sp.; strain ATCC 29212
  MIC Enterococcus faecalis (ATCC 29212): 2 µg/mL (≈ 1.36 µM)
Enterococcus sp.; strain GC 2242
  MIC Enterococcus faecalis (GC 2242): 2 µg/mL (≈ 1.36 µM)
Enterococcus sp.; strain GC 2243
  MIC Enterococcus faecium (GC 2243): 2 µg/mL (≈ 1.36 µM)
Enterococcus sp.; strain GC 2691
  MIC Enterococcus faecalis (GC 2691): 2 µg/mL (≈ 1.36 µM)
Enterococcus sp.; strain GC 3059
  MIC Enterococcus faecalis (GC 3059): 2 µg/mL (≈ 1.36 µM)
Enterococcus sp.; strain GC 4552
  MIC Enterococcus faecalis (GC 4552): 2 µg/mL (≈ 1.36 µM)
Enterococcus sp.; strain GC 4553
  MIC Enterococcus faecalis (GC 4553): 2 µg/mL (≈ 1.36 µM)
Enterococcus sp.; strain GC 4554
  MIC Enterococcus faecalis (GC 4554): 2 µg/mL (≈ 1.36 µM)
Enterococcus sp.; strain GC 4556
  MIC Enterococcus faecium (GC 4556): 2 µg/mL (≈ 1.36 µM)
Enterococcus sp.; strain GC 4557
  MIC Enterococcus faecium (GC 4557): 1 µg/mL (≈ 0.678 µM)
Enterococcus sp.; strain GC 4558
  MIC Enterococcus avium (GC 4558): 2 µg/mL (≈ 1.36 µM)
Enterococcus sp.; strain GC 6189
  MIC Enterococcus faecalis (GC 6189): 2 µg/mL (≈ 1.36 µM)

## COc1cc(C2OCC3OC(OC4C(CO)OC(Oc5ccc(CC6NC(=O)C(C(C)c7ccccc7)NC(=O)CNC(=O)C(CO)NC(=O)C(C(O)C7CNC(=N)N7C7OC(CO)C(O)C(O)C7O)NC(=O)C(C(O)C7CNC(=N)N7)NC6=O)cc5)C(O)C4O)C(O)C(O)C3O2)cc([N+](=O)[O-])c1O (stereo not drawn) [Example 169, Cyclo[glycyl-β-methylphenylalanyl-O-[4-O-[4,6-O-(4-hydroxy-3-methoxy-4-nitro-benzylidene)hexopyranosyl]hexopyranosyl]tyrosyl-3-(2-iminoimidazolidin-4-yl)seryl-3-(3-hexopyranosyl-2-iminoimidazolidin-4-yl)serylseryl]]
Staphylococcus sp.; 5×10^5 CFU/mL
  MIC Coagulase Negative Staphylococcus (GC 4547): 32 µg/mL (≈ 21.7 µM)
  MIC Coagulase Negative Staphylococcus (GC 4548): 32 µg/mL (≈ 21.7 µM)
  MIC Coagulase Negative Staphylococcus (GC 4549): 16 µg/mL (≈ 10.9 µM)
  MIC Coagulase Negative Staphylococcus (GC 4551): >64 µg/mL
  MIC Coagulase Negative Staphylococcus (GC 6257): 8 µg/mL (≈ 5.43 µM)
  MIC Staphylococcus aureus (ATCC 29213): 32 µg/mL (≈ 21.7 µM)
  MIC Staphylococcus aureus (GC 1131): 32 µg/mL (≈ 21.7 µM)
  MIC Staphylococcus aureus (GC 3051): 32 µg/mL (≈ 21.7 µM)
  MIC Staphylococcus aureus (GC 3053): >64 µg/mL
  MIC Staphylococcus aureus (GC 4541): 32 µg/mL (≈ 21.7 µM)
  MIC Staphylococcus aureus (GC 4542): 32 µg/mL (≈ 21.7 µM)
  MIC Staphylococcus aureus (GC 4544): 32 µg/mL (≈ 21.7 µM)
  MIC Staphylococcus aureus (GC 4545): 32 µg/mL (≈ 21.7 µM)
  MIC Staphylococcus aureus-SMITH (GC 4543): 32 µg/mL (≈ 21.7 µM)
  MIC Staphylococcus haemolyticus (GC 4546): 32 µg/mL (≈ 21.7 µM)
Staphylococcus sp.; strain ATCC 29213
  MIC Staphylococcus aureus (ATCC 29213): 32 µg/mL (≈ 21.7 µM)
Staphylococcus sp.; strain GC 1131
  MIC Staphylococcus aureus (GC 1131): 32 µg/mL (≈ 21.7 µM)
Staphylococcus sp.; strain GC 3051
  MIC Staphylococcus aureus (GC 3051): 32 µg/mL (≈ 21.7 µM)
Staphylococcus sp.; strain GC 3053
  MIC Staphylococcus aureus (GC 3053): >64 µg/mL
Staphylococcus sp.; strain GC 4541
  MIC Staphylococcus aureus (GC 4541): 32 µg/mL (≈ 21.7 µM)
Staphylococcus sp.; strain GC 4542
  MIC Staphylococcus aureus (GC 4542): 32 µg/mL (≈ 21.7 µM)
Staphylococcus sp.; strain GC 4544
  MIC Staphylococcus aureus (GC 4544): 32 µg/mL (≈ 21.7 µM)
Staphylococcus sp.; strain GC 4545
  MIC Staphylococcus aureus (GC 4545): 32 µg/mL (≈ 21.7 µM)
Streptococcus sp.; [1]
  MIC Streptococcus agalactiae (GC 4564): 32 µg/mL (≈ 21.7 µM)
  MIC Streptococcus pneumoniae (ATCC 6301): 8 µg/mL (≈ 5.43 µM)
  MIC Streptococcus pneumoniae (GC 1894): 8 µg/mL (≈ 5.43 µM)
  MIC Streptococcus pneumoniae (GC 4565): 8 µg/mL (≈ 5.43 µM)
  MIC Streptococcus pyogenes (GC 4563): 16 µg/mL (≈ 10.9 µM)
Streptococcus sp.; strain ATCC 6301
  MIC Streptococcus pneumoniae (ATCC 6301): 8 µg/mL (≈ 5.43 µM)
Streptococcus sp.; strain GC 1894
  MIC Streptococcus pneumoniae (GC 1894): 8 µg/mL (≈ 5.43 µM)
Streptococcus sp.; strain GC 4563
  MIC Streptococcus pyogenes (GC 4563): 16 µg/mL (≈ 10.9 µM)
Streptococcus sp.; strain GC 4564
  MIC Streptococcus agalactiae (GC 4564): 32 µg/mL (≈ 21.7 µM)
Streptococcus sp.; strain GC 4565
  MIC Streptococcus pneumoniae (GC 4565): 8 µg/mL (≈ 5.43 µM)
Escherichia coli
  MIC Escherichia coli (ATCC 25922): >64 µg/mL
  MIC Escherichia coli (GC 4559): >64 µg/mL
  MIC Escherichi coli (GC 4560): 8 µg/mL (≈ 5.43 µM)
Enterococcus sp.; [1]
  MIC Enterococcus avium (GC 4558): >64 µg/mL
  MIC Enterococcus faecalis (ATCC 29212): >64 µg/mL
  MIC Enterococcus faecalis (GC 2242): >64 µg/mL
  MIC Enterococcus faecalis (GC 2691): >64 µg/mL
  MIC Enterococcus faecalis (GC 3059): >64 µg/mL
  MIC Enterococcus faecalis (GC 4552): >64 µg/mL
  MIC Enterococcus faecalis (GC 4553): >64 µg/mL
  MIC Enterococcus faecalis (GC 4554): >64 µg/mL
  MIC Enterococcus faecalis (GC 6189): >64 µg/mL
  MIC Enterococcus faecium (GC 2243): >64 µg/mL
  MIC Enterococcus faecium (GC 4556): >64 µg/mL
  MIC Enterococcus faecium (GC 4557): 32 µg/mL (≈ 21.7 µM)
Enterococcus sp.; strain ATCC 29212
  MIC Enterococcus faecalis (ATCC 29212): >64 µg/mL
Enterococcus sp.; strain GC 2242
  MIC Enterococcus faecalis (GC 2242): >64 µg/mL
Enterococcus sp.; strain GC 2243
  MIC Enterococcus faecium (GC 2243): >64 µg/mL
Enterococcus sp.; strain GC 2691
  MIC Enterococcus faecalis (GC 2691): >64 µg/mL
Enterococcus sp.; strain GC 3059
  MIC Enterococcus faecalis (GC 3059): >64 µg/mL
Enterococcus sp.; strain GC 4552
  MIC Enterococcus faecalis (GC 4552): >64 µg/mL
Enterococcus sp.; strain GC 4553
  MIC Enterococcus faecalis (GC 4553): >64 µg/mL
Enterococcus sp.; strain GC 4554
  MIC Enterococcus faecalis (GC 4554): >64 µg/mL
Enterococcus sp.; strain GC 4556
  MIC Enterococcus faecium (GC 4556): >64 µg/mL
Enterococcus sp.; strain GC 4557
  MIC Enterococcus faecium (GC 4557): 32 µg/mL (≈ 21.7 µM)
Enterococcus sp.; strain GC 4558
  MIC Enterococcus avium (GC 4558): >64 µg/mL
Enterococcus sp.; strain GC 6189
  MIC Enterococcus faecalis (GC 6189): >64 µg/mL
